# Values quoted from earlier work as cited in US20220003741A1, “ORAL WASH FOR ORAL FLUID COLLECTION AND ANALYSIS AND METHODS OF USE THEREOF” (priority 2018, published 2022).
# Tests used:
# [1] = versus aripiprazole and dehydro aripiprazole
# [2] = not given; remark: listed apart in the source
smiles,measurement,setting,value
O=C(O)CCCOc1ccc2c(c1)NC(=O)CC2 [OPC-3373],water solubility compared with parent compound aripiprazole and dehydro aripiprazole,[1],much more water soluble
CCCCCc1cc(O)c2c(c1)OC(C)(C)[C@@H]1CCC(C)=C[C@@H]21 [THC],fraction of THC excreted in the feces,feces,More than 55%
same,fraction of THC excreted in the urine,urine,approximately 20%
CN1CCCC1c1cccnc1 (centres unmarked) [nicotine],time to reach the brain after inhalation,"[2]; after inhalation, crosses the blood-brain barrier",10 to 20 s
same,elimination half-life of nicotine in the body,[2]; in vivo,around two
